Results from PMC8037310, “Thrombin-Derived Peptides Potentiate the Activity of Gram-Positive-Specific Antibiotics against Gram-Negative Bacteria” (Molecules, 2021).
Where “and” joins values, the source holds several entries; their conditions need not be identical. Equal entries are not always repeated. Where two headings read alike, the source gives them in different places. Square brackets hold non-standard residues; d marks the D form. Peptide text beside a SMILES is read from it.

Tests used:
E. coli BW25113 [1] = assay type: cell-based, Escherichia coli; conditions: for MSCrif: rifampicin concentration in the combination giving the lowest FICi; for MSCrif / MSCpep: E. coli BW25113; for MICpep: synergist alone, E. coli BW25113, from checkerboard with rifampicin; for MSCpep: synergist concentration in the combination with rifampicin giving the lowest FICi; for FICi: BW25113, 20 h
Procedure: (§1) All peptides were screened for antimicrobial activity against E. coli BW25113, E. coli ATCC25922, and E. coli W3110. A select group of the peptides was further tested against E. coli mcr-1, E. coli EQASmcr-1 (EQAS 2016 412016126), E. coli EQASmcr-2 (EQAS 2016 KP37), E. coli EQASmcr-3 (EQAS 2017 2013-SQ352), K. pneumoniae ATCC13883, P. aeruginosa ATCC27853, and A. baumannii ATCC17978. The antimicrobial assay was performed according to CLSI guidelines. Bacteria were plated out directly from their glycerol stocks on blood agar plates, incubated overnight at 37 °C, and then kept in the fridge. The blood agar plates were only used for 2 weeks and then replaced.
(§2) One colony from a blood agar plates was inoculated in Lysogeny Broth (LB) at 37 °C until a 0.5 optical density at 600 nm (OD600) was reached (compared to the sterility control of LB). The bacterial suspension was diluted in fresh LB to 2.0 × 10^6 CFU/mL. The serial dilutions were prepared in polypropylene microtiter plates: a stock of the test compounds was prepared with a 2x final concentration in LB. Moreover, 100 µL of the stock was added to the wells of the top row of which 50 µL was used for the serial dilution. The bottom row of each plate was used as the positive (50 µL of LB) and negative controls (100 µL of LB) (6 wells each). Furthermore, 50 µL of the 2.0 × 10^6 CFU/mL bacterial stock was added to each well except for the negative controls, adding up to a total volume of 100 µL per well. The plates were sealed with a breathable seal and incubated for 20 h at 37 °C and 600 rpm.
(§3) Two 96-well plates were required per compound. A serial dilution of the compound was performed on two plates from row A–G using with LB as medium. Row H was filled with 25 µL medium. On a separate plate a negative control (8 wells, 100 μL medium) was prepared. For all concentrations of antibiotic a specific stock was prepared. 25 µL medium was added to the 0 µg/mL antibiotic columns (plate I, column 1–3). Of each antibiotic stock 25 µL was added to three columns to obtain triplicates for every condition. Both plates contained 50 µL in each well to which 50 µL bacterial stock was added (see the protocol of the MIC assays) and the plates were sealed. After incubation for 20 h at 37 °C while shaking, the breathable seals were removed and the density of the bacterial suspensions measured at 600 nm (OD600) using a Tecan Spark plate reader. The OD600 values were transformed to a 2D gradient with the negative control as minimum and the positive control (wells G1, G2, and G3) as maximum in excel. The FICi was calculated using Equation (1) with a FICi ≤ 0.5 indicating synergy. FICi = (MSCa/MICa) + (MSCb/MICb),(1)
(§4) Calculation of the FICi: MSCa = concentration of the […] in combination with the antibiotic that results in the lowest FICi. MICa = MIC of the antibiotic without synergist (row G). MSCb = concentration of the synergist in combination with the antibiotic that results in the lowest FICi. MICb = MIC of the synergist itself (Column 1–3, plate I).

E. coli BW25113 [2] = experiment: Checkerboard assay with erythromycin; assay type: cell-based, Escherichia coli; conditions: for MSCery: erythromycin concentration in the combination with the synergist giving the lowest FICi, E. coli BW25113; for MIC of the peptide (MICpep): synergist alone, from checkerboard with erythromycin; for MIC of the peptide (MICpep) / MSCpeptide, minimum synergistic concentration: 20 h 37 °C; for MSCpeptide, minimum synergistic concentration: synergist concentration in the combination with erythromycin giving the lowest FICi, OD600; for FICi: with erythromycin vs E. coli BW25113, synergy defined as FICi ≤ 0.5
Procedure: as §1, §2, §3, §4

[3] = test system: defibrinated sheep blood (red blood cells); experiment: Hemolysis assay; assay type: cell-based; conditions: 200 µg/mL compound, 20 h incubation at 37 °C with defibrinated sheep blood, PBS 0.002% Tween20, absorbance 415 nm, relative to 0.1% Triton X-100; n=3 technical replicates
Procedure: Defibrinated sheep blood (Thermo Fisher Scientific) and a phosphate-buffered saline (PBS) buffer containing 0.002% Tween20 were used in this assay. The red blood cells were washed with buffer followed by centrifugation (400 g for 15 min at 4 °C). The red blood cells were then normalized to obtain a positive control read-out around 2.5 at 415 nm to stay in the linear range with the maximum sensitivity. A serial dilution of the compounds (200–1.56 µg/mL, 75 µL) was prepared in a 96-well plate. Each plate contained a positive control (0.1% Triton X-100 final concentration, 75 µL) and the negative control (buffer, 75 µL). After addition of normalized blood cells (75 µL), the plates were incubated for 20 h at 37 °C at 500 rpm. The plates were centrifuged (800× g for 5 min at room temperature). For the next step flat-bottom polystyrene plates were prepared with 100 µL buffer in each well. Aliquots of 25 µL supernatant from the centrifuged plates were then transferred to their respective wells in the flat-bottom plate. Absorbance values where measured at 415 nm and corrected for background (negative control) and transformed to a percentage hemolysis relative to the positive control.

E. coli BW25113 [4] = experiment: microbe, parasite or virus in culture; assay type: cell-based, Escherichia coli; conditions: antibiotic without synergist, E. coli BW25113
Procedure: as §1, §2, §3, §4

Row | Structure (SMILES) | MSCrif (E. coli BW25113 [1]) | MICpep (E. coli BW25113 [1]) | MSCpep (E. coli BW25113 [1]) | MSCery (E. coli BW25113 [2]) | MIC of the peptide (MICpep) (E. coli BW25113 [2]; E. coli BW25113, LB) | MSCpeptide, minimum synergistic concentration (E. coli BW25113 [2]; E. coli BW25113, LB) | FICi (E. coli BW25113 [2]) | FICi (E. coli BW25113 [1]) | Hemolysis [3] | MIC (E. coli BW25113 [2]; Escherichia coli, antibiotic without synergist, E. coli BW25113, LB, read-out: MIC of erythromycin (MICery)) | MIC of erythromycin (MICery) (E. coli BW25113 [2]; antibiotic without synergist, E. coli BW25113, LB) | MIC (E. coli BW25113 [4]; Escherichia coli, read-out: MIC of novobiocin (MICnovo)) | MIC of novobiocin (MICnovo) (E. coli BW25113 [4])
1 | CC[C@H](C)[C@H](NC(=O)[C@H](Cc1c[nH]c2ccccc12)NC(=O)[C@H](CCCCN)NC(=O)[C@H](CCCCN)NC(=O)[C@H](CC(C)C)NC(=O)[C@H](CCCNC(=N)N)NC(=O)[C@H](Cc1ccccc1)NC(=O)[C@@H](NC(=O)[C@@H](N)Cc1c[nH]cn1)C(C)C)C(=O)N[C@@H](CCC(N)=O)C(=O)N[C@@H](CCCCN)C(=O)N[C@H](C(=O)N[C@H](C(=O)N[C@@H](CC(=O)O)C(=O)N[C@@H](CCC(N)=O)C(=O)N[C@@H](Cc1ccccc1)C(=O)NCC(=O)N[C@@H](CCC(=O)O)C(=O)O)[C@@H](C)CC)C(C)C [peptide 2] (H-HVFRLKKWIQKVIDQFGE-OH) | 0.5 µg/mL | 200 µg/mL | 50 µg/mL | 25 µg/mL | 200 µg/mL | 50 µg/mL | 0.3750 | – | – | – | – | – | –
2 | CC[C@H](C)[C@H](NC(=O)[C@H](C)NC(=O)[C@H](CCCCN)NC(=O)[C@H](CCC(N)=O)NC(=O)[C@@H](NC(=O)[C@H](Cc1c[nH]c2ccccc12)NC(=O)[C@H](CCCCN)NC(=O)[C@H](CCCCN)NC(=O)[C@H](CC(C)C)NC(=O)[C@H](CCCNC(=N)N)NC(=O)[C@H](Cc1ccccc1)NC(=O)[C@@H](N)C(C)C)[C@@H](C)CC)C(N)=O [compound 18] (H-VFRLKKWIQKAI-NH2) | – | 50 µg/mL | 3.125 µg/mL | 12.5 µg/mL | 50 µg/mL | 3.125 µg/mL | 0.1250 | 0.0781 | 2.3% and 2% | – | – | – | –
3 | CC[C@H](C)[C@H](NC(=O)[C@@H](NC(=O)[C@H](CCCCN)NC(=O)[C@H](CCC(N)=O)NC(=O)[C@@H](NC(=O)[C@H](Cc1c[nH]c2ccccc12)NC(=O)[C@H](C)NC(=O)[C@H](CCCCN)NC(=O)[C@H](CC(C)C)NC(=O)[C@H](CCCNC(=N)N)NC(=O)[C@H](Cc1ccccc1)NC(=O)[C@@H](N)C(C)C)[C@@H](C)CC)C(C)C)C(N)=O [compound 13] (H-VFRLKAWIQKVI-NH2) | 2 µg/mL | 25 µg/mL | 6.25 µg/mL | 3.125 µg/mL | 25 µg/mL | 12.5 µg/mL | > 0.5 | 0.5000 | 19.0% | – | – | – | –
4 | CC[C@@H](C)[C@@H](NC(=O)[C@H](NC(=O)[C@@H](CCCCN)NC(=O)[C@@H](CCC(N)=O)NC(=O)[C@H](NC(=O)[C@@H](Cc1c[nH]c2ccccc12)NC(=O)[C@@H](CCCCN)NC(=O)[C@@H](CCCCN)NC(=O)[C@@H](CC(C)C)NC(=O)[C@@H](CCCNC(=N)N)NC(=O)[C@@H](Cc1ccccc1)NC(=O)[C@H](N)C(C)C)[C@H](C)CC)C(C)C)C(N)=O [peptide 20] (H-[dV][dF][dR][dL][dK][dK][dW][dI][dQ][dK][dV][dI]-NH2) | 0.25 µg/mL | 12.5 µg/mL | 3.125 µg/mL | 3.125 µg/mL | 6.25 µg/mL | 3.13 µg/mL | – | 0.2813 | 3.2% and 3% | – | – | – | –
5 | CC[C@H](C)[C@H](NC(=O)[C@@H](NC(=O)[C@H](CCCCN)NC(=O)[C@H](CCC(N)=O)NC(=O)[C@@H](NC(=O)[C@H](Cc1c[nH]c2ccccc12)NC(=O)[C@H](CCCCN)NC(=O)[C@H](CCCCN)NC(=O)[C@H](CC(C)C)NC(=O)[C@H](CCCNC(=N)N)NC(=O)[C@H](Cc1ccccc1)NC(=O)[C@H](C)N)[C@@H](C)CC)C(C)C)C(N)=O [peptide 8] (H-AFRLKKWIQKVI-NH2) | – | 12.5 µg/mL | 1.563 µg/mL | 12.5 µg/mL | 12.5 µg/mL | 1.563 µg/mL | – | 0.1406 | 1.5% and 2% | – | – | – | –
6 | CC[C@H](C)[C@H](NC(=O)[C@@H](NC(=O)[C@H](CCCCN)NC(=O)[C@H](CCC(N)=O)NC(=O)[C@@H](NC(=O)[C@H](Cc1c[nH]c2ccccc12)NC(=O)[C@H](CCCCN)NC(=O)[C@H](CCCCN)NC(=O)[C@H](C)NC(=O)[C@H](CCCNC(=N)N)NC(=O)[C@H](Cc1ccccc1)NC(=O)[C@@H](N)C(C)C)[C@@H](C)CC)C(C)C)C(N)=O [compound 11] (H-VFRAKKWIQKVI-NH2) | 0.25 µg/mL | 25 µg/mL | 1.563 µg/mL | 12.5 µg/mL | 200 µg/mL | 25 µg/mL | – | – | 1.1% and 1% | – | – | – | –
7 | CC[C@H]1OC(=O)[C@H](C)[C@@H](O[C@H]2C[C@@](C)(OC)[C@@H](O)[C@H](C)O2)[C@H](C)[C@@H](O[C@@H]2O[C@H](C)C[C@H](N(C)C)[C@H]2O)[C@](C)(O)C[C@@H](C)C(=O)[C@H](C)[C@@H](O)[C@]1(C)O [erythromycin, reference compound] | – | – | – | – | – | – | – | – | – | 100 to 200 µg/mL | > 100 µg/mL and 200 µg/mL | – | –
8 | CC[C@H](C)[C@H](NC(=O)[C@H](Cc1c[nH]c2ccccc12)NC(=O)[C@H](CCCCN)NC(=O)[C@H](CCCCN)NC(=O)[C@H](CC(C)C)NC(=O)[C@H](CCCNC(=N)N)NC(=O)[C@H](Cc1ccccc1)NC(=O)[C@@H](NC(=O)[C@@H](N)Cc1cnc[nH]1)C(C)C)C(=O)N[C@@H](CCC(N)=O)C(=O)N[C@@H](CCCCN)C(=O)N[C@H](C(=O)N[C@H](C(=O)N[C@@H](CC(=O)O)C(=O)N[C@@H](CCC(N)=O)C(=O)N[C@@H](Cc1ccccc1)C(=O)NCC(=O)N[C@@H](CCC(=O)O)C(=O)O)[C@@H](C)CC)C(C)C [peptide 2] (H-HVFRLKKWIQKVIDQFGE-OH) | – | – | – | – | – | – | – | – | 8.7% and 9% | – | – | – | –
9 | CO[C@@H]1[C@@H](OC(N)=O)[C@@H](O)[C@H](Oc2ccc3c(O)c(NC(=O)c4ccc(O)c(CC=C(C)C)c4)c(=O)oc3c2C)OC1(C)C [novobiocin, reference compound] | – | – | – | – | – | – | – | – | – | – | – | > 200 µg/mL | > 200 µg/mL
